Test results reported in patent US20250234824A1, “MARKERS ASSOCIATED WITH S[…]” (Syngenta Crop Protection AG, priority 2022, published 2025).

System: maize haploids
Experiment: Colchicine doubling treatment of BC3 haploids, pollen and kernel phenotypes in the field
Type: in vivo
Conditions: for Average Number of Days of Pollen per Plant / Average Number of Kernels per Plant / Percent of Plants with Ears >5 kernels: colchicine-treated haploids
Excerpt: Genotyping was used to identify heterozygotes at SCD-QTL1, and those materials were then crossed by a haploid inducer, embryos isolated from the immature ears, and haploids regenerated for transplant into the field. Immediately after isolation, embryos from each of the 17 BC3 populations were split into 2 treatment groups. […] All lines were planted across three replications of the trial over the course of approximately 6 months, and the data was pooled for analysis.

[1] = BC3 recurrent parent Line 1, SCD Allele
[2] = BC3 recurrent parent Line 1, Unfavorable Allele
[3] = BC3 recurrent parent Line 2, SCD Allele
[4] = BC3 recurrent parent Line 2, Unfavorable Allele
[5] = BC3 recurrent parent Line 3, SCD Allele
[6] = BC3 recurrent parent Line 3, Unfavorable Allele
[7] = BC3 recurrent parent Line 4, SCD Allele
[8] = BC3 recurrent parent Line 4, Unfavorable Allele
[9] = BC3 recurrent parent Line 5, SCD Allele
[10] = BC3 recurrent parent Line 5, Unfavorable Allele
[11] = BC3 recurrent parent Line 6, SCD Allele
[12] = BC3 recurrent parent Line 6, Unfavorable Allele
[13] = BC3 recurrent parent Line 7, SCD Allele
[14] = BC3 recurrent parent Line 7, Unfavorable Allele
[15] = BC3 recurrent parent Line 8, SCD Allele
[16] = BC3 recurrent parent Line 8, Unfavorable Allele
[17] = BC3 recurrent parent Line 9, SCD Allele
[18] = BC3 recurrent parent Line 9, Unfavorable Allele
[19] = BC3 recurrent parent Line 10, SCD Allele
[20] = BC3 recurrent parent Line 10, Unfavorable Allele
[21] = BC3 recurrent parent Line 11, SCD Allele
[22] = BC3 recurrent parent Line 11, Unfavorable Allele
[23] = BC3 recurrent parent Line 12, SCD Allele
[24] = BC3 recurrent parent Line 12, Unfavorable Allele
[25] = BC3 recurrent parent Line 13, SCD Allele
[26] = BC3 recurrent parent Line 13, Unfavorable Allele
[27] = BC3 recurrent parent Line 14, SCD Allele
[28] = BC3 recurrent parent Line 14, Unfavorable Allele
[29] = BC3 recurrent parent Line 15, SCD Allele
[30] = BC3 recurrent parent Line 15, Unfavorable Allele
[31] = BC3 recurrent parent Line 16, SCD Allele
[32] = BC3 recurrent parent Line 16, Unfavorable Allele
[33] = BC3 recurrent parent Line 17, SCD Allele
[34] = BC3 recurrent parent Line 17, Unfavorable Allele

SMILES: COc1cc2c(c(OC)c1OC)-c1ccc(OC)c(=O)cc1[C@@H](NC(C)=O)CC2 [Colchicine, colchicine]
- Average Number of Days of Pollen per Plant [1]: 3.1 days
- Average Number of Kernels per Plant [1]: 23.8 kernels
- Percent of Plants with Ears >5 kernels [1]: 53.9%
- Average Number of Days of Pollen per Plant [2]: 2.4 days
- Average Number of Kernels per Plant [2]: 13.5 kernels
- Percent of Plants with Ears >5 kernels [2]: 26.6%
- Average Number of Days of Pollen per Plant [3]: 1.72 days
- Average Number of Kernels per Plant [3]: 5 kernels
- Percent of Plants with Ears >5 kernels [3]: 12.0%
- Average Number of Days of Pollen per Plant [4]: 2.35 days
- Average Number of Kernels per Plant [4]: 9.62 kernels
- Percent of Plants with Ears >5 kernels [4]: 13.5%
- Average Number of Days of Pollen per Plant [5]: 1.76 days
- Average Number of Kernels per Plant [5]: 7.62 kernels
- Percent of Plants with Ears >5 kernels [5]: 6.9%
- Average Number of Days of Pollen per Plant [6]: 1.45 days
- Average Number of Kernels per Plant [6]: 9.03 kernels
- Percent of Plants with Ears >5 kernels [6]: 9.1%
- Average Number of Days of Pollen per Plant [7]: 0.04 days
- Average Number of Kernels per Plant [7]: 0 kernels
- Percent of Plants with Ears >5 kernels [7]: 0.0%
- Average Number of Days of Pollen per Plant [8]: 0.57 days
- Average Number of Kernels per Plant [8]: 7.1 kernels
- Percent of Plants with Ears >5 kernels [8]: 13.2%
- Average Number of Days of Pollen per Plant [9]: 2.34 days
- Average Number of Kernels per Plant [9]: 2.31 kernels
- Percent of Plants with Ears >5 kernels [9]: 3.1%
- Average Number of Days of Pollen per Plant [10]: 2.19 days
- Average Number of Kernels per Plant [10]: 4.88 kernels
- Percent of Plants with Ears >5 kernels [10]: 7.6%
- Average Number of Days of Pollen per Plant [11]: 1.675 days
- Average Number of Kernels per Plant [11]: 11.23 kernels
- Percent of Plants with Ears >5 kernels [11]: 25.0%
- Average Number of Days of Pollen per Plant [12]: 2.01 days
- Average Number of Kernels per Plant [12]: 19.09 kernels
- Percent of Plants with Ears >5 kernels [12]: 27.2%
- Average Number of Days of Pollen per Plant [13]: 1.58 days
- Average Number of Kernels per Plant [13]: 53.5 kernels
- Percent of Plants with Ears >5 kernels [13]: 37.9%
- Average Number of Days of Pollen per Plant [14]: 1.298 days
- Average Number of Kernels per Plant [14]: 54.18 kernels
- Percent of Plants with Ears >5 kernels [14]: 29.9%
- Average Number of Days of Pollen per Plant [15]: 1.72 days
- Average Number of Kernels per Plant [15]: 37.34 kernels
- Percent of Plants with Ears >5 kernels [15]: 31.1%
- Average Number of Days of Pollen per Plant [16]: 1.466 days
- Average Number of Kernels per Plant [16]: 26.17 kernels
- Average Number of Days of Pollen per Plant [17]: 2.58 days
- Average Number of Kernels per Plant [17]: 27.9 kernels
- Average Number of Days of Pollen per Plant [18]: 2.51 days
- Average Number of Kernels per Plant [18]: 24.067 kernels
- Percent of Plants with Ears >5 kernels [18]: 29.3%
- Average Number of Days of Pollen per Plant [19]: 1.12 days
- Average Number of Kernels per Plant [19]: 23.17 kernels
- Average Number of Days of Pollen per Plant [20]: 1.005 days
- Average Number of Kernels per Plant [20]: 13.75 kernels
- Percent of Plants with Ears >5 kernels [20]: 26.4%
- Average Number of Days of Pollen per Plant [21]: 1.09 days
- Average Number of Kernels per Plant [21]: 4.97 kernels
- Percent of Plants with Ears >5 kernels [21]: 8.7%
- Average Number of Days of Pollen per Plant [22]: 1.2 days
- Average Number of Kernels per Plant [22]: 18.11 kernels
- Percent of Plants with Ears >5 kernels [22]: 17.5%
- Average Number of Days of Pollen per Plant [23]: 1.25 days
- Average Number of Kernels per Plant [23]: 19.56 kernels
- Percent of Plants with Ears >5 kernels [23]: 28.5%
- Average Number of Days of Pollen per Plant [24]: 0.96 days
- Average Number of Kernels per Plant [24]: 22.12 kernels
- Percent of Plants with Ears >5 kernels [24]: 21.3%
- Average Number of Days of Pollen per Plant [25]: 1.45 days
- Average Number of Kernels per Plant [25]: 32.5 kernels
- Percent of Plants with Ears >5 kernels [25]: 25.8%
- Average Number of Days of Pollen per Plant [26]: 1.33 days
- Average Number of Kernels per Plant [26]: 24.5 kernels
- Percent of Plants with Ears >5 kernels [26]: 24.7%
- Average Number of Days of Pollen per Plant [27]: 1.28 days
- Average Number of Kernels per Plant [27]: 31 kernels
- Percent of Plants with Ears >5 kernels [27]: 29.9%
- Average Number of Days of Pollen per Plant [28]: 1.1 days
- Average Number of Kernels per Plant [28]: 40.57 kernels
- Percent of Plants with Ears >5 kernels [28]: 26.2%
- Average Number of Days of Pollen per Plant [29]: 2.66 days
- Average Number of Kernels per Plant [29]: 45.47 kernels
- Percent of Plants with Ears >5 kernels [29]: 64.9%
- Average Number of Days of Pollen per Plant [30]: 2.81 days
- Average Number of Kernels per Plant [30]: 72.9 kernels
- Percent of Plants with Ears >5 kernels [30]: 72.2%
- Average Number of Days of Pollen per Plant [31]: 1.65 days
- Average Number of Kernels per Plant [31]: 31.56 kernels
- Average Number of Days of Pollen per Plant [32]: 1.67 days
- Average Number of Kernels per Plant [32]: 28.03 kernels
- Percent of Plants with Ears >5 kernels [32]: 37.6%
- Average Number of Days of Pollen per Plant [33]: 2.63 days
- Average Number of Kernels per Plant [33]: 52.86 kernels
- Percent of Plants with Ears >5 kernels [33]: 49.1%
- Average Number of Days of Pollen per Plant [34]: 2.51 days
- Average Number of Kernels per Plant [34]: 58.48 kernels
- Percent of Plants with Ears >5 kernels [34]: 50.4%
- pollen and kernel production (colchicine-treated groups compared with SCD-QTL1 alone, 17 BC3 populations pooled): performed overall better in both pollen and kernel production than the SCD-QTL1 alone
